Assay results published in ChEMBL document CHEMBL1149295, “A combined QM/MM approach to protein--ligand interactions: polarization effects of the HIV-1 protease on selected high affinity inhibitors” (J Med Chem, 2004).

Test: Inhibition of HIV1 protease
Design: species or system Human immunodeficiency virus 1

| Ki [nM] | Structure (SMILES) |
| --- | --- |
| 0.41 | Nc1cccc(CN2C(=O)N(Cc3cccc(N)c3)[C@H](Cc3ccccc3)[C@H](O)[C@@H](O)[C@H]2Cc2ccccc2)c1 [MOZENAVIR] |
| 0.28 | Cc1c(O)cccc1C(=O)N[C@@H](CSc1ccccc1)[C@H](O)CN1C[C@H]2CCCC[C@H]2C[C@H]1C(=O)NC(C)(C)C [NELFINAVIR] |
| 0.008 | CCC[C@@]1(CCc2ccccc2)CC(O)=C([C@H](CC)c2cccc(NS(=O)(=O)c3ccc(C(F)(F)F)cn3)c2)C(=O)O1 [TIPRANAVIR] |
